According to patent US20050244966A1, “Insulin producing cells” (Ramot At Tel Aviv University Ltd., priority 2003, published 2005):

System: FH-B-TPN cells
Test: Insulin content of FH-B-TPN cells (RIA/ELISA of cell extracts)
Type: cell-based, human
Details: for Insulin content / Fold increase (insulin content): FH-B-TPN cells; for Insulin content / Effect on insulin content of FH-B-TPN cells (in words): RIA; for Fold increase (insulin content): vs CM; for Effect on insulin content of FH-B-TPN cells (in words): in CM, compared with regular medium or with Act-A alone
Method: FH cells were isolated and cultured as described (19), in Dulbecco's modified Eagle's medium containing 25 mM glucose and supplemented with 10% fetal bovine serum (FBS), 100 U/ml penicillin, 100 μg/ml streptomycin, 5 μM hydrocortisone, and 5 μg/ml insulin. A subclone of FH cells that was stably transduced with hTERT, designated FH-B-hTERT (FH-B), was cultured in the same medium, as described (20). FH-B cells transduced with the Pdx1 gene (see below), designated FH-B-TPN cells, were maintained in the same culture medium, with the exception of hydrocortisone and insulin (complete medium CM). For incubation in serum-free medium, the cells were placed in DMEM containing antibiotics, in the presence of 100 ng/ml insulin, 55 ng/ml transferrin, and 50 pg/ml selenium (ITS, Sigma). For all experiments activin A (Cytolab/PreproTech Asia, Rehovot, Israel) was added at a final concentration of 4 nM. except for those aimed at promoting differentiation of FH-B-TPN cells towards the beta-cell phenotype. There, addition of Act-A, as well as betacellulin (BTC, R&D Systems, Minneapolis, Minn.), nicotinamide (NA), exendin-4, and hepatocyte growth factor (HGF) (the last 3 compounds from Sigma-Aldrich) was at concentrations detailed herein below.
Insulin secretion from FH-B-TPN cells was measured by static incubation as previously described (2). Cells were plated in 24-well plates at 10^5 cells per well. The cells were preincubated for 1 hour in Krebs-Ringer buffer (KRB), followed by incubation for the indicated period of time in KRB containing 0.5 mM 1-isobutyl 3-methylxanthine (IBMX) and glucose at various concentrations. The cells were then extracted in acetic acid, and the amount of insulin in the buffer and cell extract was determined by radioimmunoassay (RIA) using the INSIK-5 kit (DiaSorin, Vercelli, Italy) according to the manufacturer. This assay has <20% crossreactivity with proinsulin. In addition, insulin content was determined using an ELISA kit (Diagnostic Systems Laboratories, Webster, Tex. or (Mercodia, Uppsala, Sweden), which recognizes only mature insulin. Insulin content was normalized to total cellular protein, measured by the Bio-Rad (Hercules, Calif.) Protein Assay kit. Human C-peptide in the cell extract was determined using a RIA kit (DiaSorin, Vercelli, Italy) or ELISA kit (Mercodia, Uppsala, Sweden) according to the manufacturers.

In the case of `NC(=O)c1cccnc1` [NA, nicotinamide, reference compound], the Insulin content (5 mM in CM (6 d)) is reported as 122 ± 20 ng/10^6 cells, the “Fold increase (insulin content)” value (5 mM in CM (6 d)) is reported as 0.6 and the “Effect on insulin content of FH-B-TPN cells (in words)” value is reported as “decrease”.

exendin-4 [reference compound] was tested, and the Insulin content (2-8 nM in CM (6 d)) was 0 ng/10^6 cells, the “Fold increase (insulin content)” value (2-8 nM in CM (6 d)) was 0 and the “Effect on insulin content of FH-B-TPN cells (in words)” value was “decrease”.
